Source: PubChem BioAssay AID1259408 (Genetic Toxicology Data Bank (GENE-TOX), 2018)
Calls of active or inactive are those of the source. No rule for the calls is given here.

Tested on: GENE-TOX genotoxicity assays, various organisms and cells
Assay: GENE-TOX mutagenicity studies
Settings: for call: Assay Type: In vivo carcinogenicity studies
Excerpt: GENE-TOX provides genetic toxicology (mutagenicity) test data from expert peer review of open scientific literature for more than 3,000 chemicals from the United States Environmental Protection Agency (EPA). GENE-TOX was established to select assay systems for evaluation, review data in the scientific literature, and recommend proper testing protocols and evaluation procedures for these systems.
GENE-TOX covers the years 1991 - 1998. It is no longer updated.
This is an archive assay for GENE-TOX mutagenicity studies.

[1] = Species/Cell Type: Nonhuman, Assay Code: CCG+, Evaluation Type: Evaluation A (Pre-1980)
[2] = Species/Cell Type: Saccharomyces cerevisiae, Assay Type: Mitotic recombination or gene conversion, Assay Code: YEC-, Evaluation Type: Evaluation A (Pre-1980)
[3] = Species/Cell Type: Drosophila melanogaster, Assay Type: Sex-linked recessive lethal gene mutation, Assay Code: SRL+, Evaluation Type: Evaluation A (Pre-1980)
[4] = Species/Cell Type: Saccharomyces cerevisiae, Assay Type: Mitotic recombination or gene conversion, Assay Code: YEC+, Evaluation Type: Evaluation A (Pre-1980)
[5] = Species/Cell Type: Salmonella typhimurium (one or more of the five standard strains: TA98, TA100, TA1535, TA1537, and TA1538), Assay Type: Histidine reverse gene mutation, Ames assay, Assay Code: SAL+, Evaluation Type: Evaluation A (Pre-1980)

`Cc1cc(C)c(N=Nc2c(O)c(S(=O)(=O)O)cc3cc(S(=O)(=O)O)ccc23)cc1C` was tested, and the mutagenic call (Species/Cell Type: Bacillus subtilis (H17 vs M45), Assay Type: Rec-assay, spot test, DNA effects (bacterial DNA repair), Assay Code: REWT, Evaluation Type: Evaluation A (Pre-1980)) was “no conclusion”, the mutagenic call (Species/Cell Type: Bacillus subtilis (H17 vs M45T), Assay Type: Rec-assay, spot test, DNA effects (bacterial DNA repair), Assay Code: REXT, Evaluation Type: Evaluation A (Pre-1980)) was “no conclusion” and the call [1] was “active; positive”. For the same molecule, the mutagenic call [2] was “inactive; negative” and the mutagenic call (Species/Cell Type: Salmonella typhimurium (one or more of the five standard strains: TA98, TA100, TA1535, TA1537, and TA1538), Assay Type: Histidine reverse gene mutation, Ames assay, Assay Code: SAL-, Evaluation Type: Evaluation A (Pre-1980)) was “inactive; negative”.
With `Nc1cc([N+](=O)[O-])ccc1C(=O)O` the call (Species/Cell Type: Nonhuman, Assay Code: CCG-, Evaluation Type: Evaluation A (Pre-1980)) was “inactive; negative”.
`O=NN(CCCl)C(=O)NCCCCCNC(=O)N(CCCl)N=O` was tested, and the mutagenic call [3] was “active; positive” and the mutagenic call [4] was “active; positive”.
For `[O-][Br+2]([O-])O`, the mutagenic call (Species/Cell Type: Mammalian polychromatic erythrocytes, Assay Type: Micronucleus test, chromosome aberrations, Assay Code: MNT+, Evaluation Type: Evaluation B (Post-1980)) was “active; positive”.
For `COC(=O)[C@H]1[C@H]2C[C@@H]3c4[nH]c5cc(OC)ccc5c4CCN3C[C@H]2C[C@@H](OC(=O)c2cc(OC)c(OC)c(OC)c2)[C@@H]1OC`, the mutagenic call (Species/Cell Type: Aspergillus nidulans, Assay Type: Aneuploidy, chromosome aberrations, Assay Code: ASNT, Evaluation Type: Evaluation A (Pre-1980)) was “no conclusion” and the call [1] was “active; positive”.
`O=[N+]([O-])c1nccn1CC(O)CF` (centres undefined) was tested, and the mutagenic call [5] was “active; positive”.
With `ClC1(Cl)C2(Cl)C3(Cl)C4(Cl)C(Cl)(Cl)C5(Cl)C3(Cl)C1(Cl)C5(Cl)C24Cl` (centres undefined) the call [1] was “active; positive” and the mutagenic call (Species/Cell Type: Rodents, Sex: Male, Assay Type: Dominant lethal test, Assay Code: DLT-, Evaluation Type: Evaluation A (Pre-1980)) was “inactive; negative”.
For `CCCCCc1cc(O)cc(O)c1`, the mutagenic call (Species/Cell Type: Human lymphocytes, Assay Type: Micronucleus test in vitro, chromosome aberrations, Assay Code: MN7+, Evaluation Type: Evaluation A (Pre-1980)) was “active; positive”.
`Nc1ccc(Cl)cc1Cl` was tested, and the mutagenic call (Species/Cell Type: Mouse, Sex: Male, Assay Type: Sperm morphology, Assay Code: SPI-, Evaluation Type: Evaluation A (Pre-1980)) was “inactive; negative”.
With `CC1=C(C(C)O)c2cc3nc(cc4[nH]c(cc5[nH]c(cc1n2)c(C)c5CCC(=O)O)c(CCC(=O)O)c4C)C(C(C)O)=C3C` (centres undefined) the mutagenic call (Species/Cell Type: Human, Assay Type: Sister-chromatid exchange (SCE) in vitro, Assay Code: SC1T, Evaluation Type: Evaluation B (Post-1980)) was “no conclusion”.
For `O=Nc1ccc(NNc2ccccc2)cc1`, the mutagenic call [5] was “active; positive”.
For `CC(C)(OO)c1ccccc1`, the mutagenic call [2] was “inactive; negative”.
`CCOc1ccc(CC(=O)NN)cc1CN(CC)CC` was tested, and the mutagenic call (Species/Cell Type: Saccharomyces cerevisiae, Assay Type: Reverse gene mutation, Assay Code: YERT, Evaluation Type: Evaluation A (Pre-1980)) was “no conclusion”.
With `O=NN(CCCCO)c1ccccc1` the mutagenic call (Species/Cell Type: Salmonella typhimurium (one or more of the five standard strains: TA98, TA100, TA1535, TA1537, and TA1538), Assay Type: Histidine reverse gene mutation, Ames assay, Assay Code: SALT, Evaluation Type: Evaluation A (Pre-1980)) was “no conclusion”.
With `FC(F)(Cl)Br` the mutagenic call (Species/Cell Type: Mammalian polychromatic erythrocytes, Assay Type: Micronucleus test, chromosome aberrations, Assay Code: MNT-, Evaluation Type: Evaluation B (Post-1980)) was “inactive; negative”.
`O=c1cc(-c2ccccc2)oc2c1ccc1ccccc12` was tested, and the mutagenic call (Species/Cell Type: Human lymphocytes, Assay Type: Sister-chromatid exchange (SCE) in vitro, Assay Code: SCL+D, Dose Response: With dose response, Evaluation Type: Evaluation B (Post-1980)) was “active; positive”, the mutagenic call (Species/Cell Type: Human, Assay Type: Sister-chromatid exchange (SCE) in vitro, Assay Code: SC1+D, Dose Response: With dose response, Evaluation Type: Evaluation B (Post-1980)) was “active; positive” and the mutagenic call (Species/Cell Type: Human, Assay Type: Sister-chromatid exchange (SCE) in vitro, Assay Code: SC1T, Evaluation Type: Evaluation A (Pre-1980)) was “no conclusion”. The mutagenic call (Species/Cell Type: Mammalian polychromatic erythrocytes, Assay Type: Micronucleus test, chromosome aberrations, Assay Code: MNTT, Evaluation Type: Evaluation B (Post-1980)) was “no conclusion” and the mutagenic call (Species/Cell Type: Syrian hamster embryo (SA7/SHE) cells, Assay Type: Cell transformation, viral enhanced, Assay Code: CT7-, Evaluation Type: Evaluation A (Pre-1980)) was “inactive; negative”.
`[Cl][Fe][Cl]` was tested, and the mutagenic call (Species/Cell Type: Bacillus subtilis (H17 vs M45), Assay Type: Rec-assay, spot test, DNA effects (bacterial DNA repair), Assay Code: REW-, Evaluation Type: Evaluation A (Pre-1980)) was “inactive; negative” and the mutagenic call (Species/Cell Type: Syrian hamster embryo (SA7/SHE) cells, Assay Type: Cell transformation, viral enhanced, Assay Code: CT7+, Evaluation Type: Evaluation A (Pre-1980)) was “active; positive”.
In the case of `CN(C)N=Nc1cccnc1`, the mutagenic call [3] is reported as “active; positive”, the mutagenic call (Species/Cell Type: Mammalian polychromatic erythrocytes, Assay Type: Micronucleus test, chromosome aberrations, Assay Code: MNT+, Evaluation Type: Evaluation A (Pre-1980)) is reported as “active; positive” and the mutagenic call (Species/Cell Type: Saccharomyces cerevisiae, Assay Type: Forward and reverse gene mutation, mitotic recombination and gene conversion, host-mediated assay, Assay Code: HME+, Evaluation Type: Evaluation A (Pre-1980)) is reported as “active; positive”. The mutagenic call [4] was “active; positive”.
With `C=CC1CO1` (centres undefined) the mutagenic call (Species/Cell Type: Nonhuman, Assay Type: Sister-chromatid exchange (SCE) in vivo, Assay Code: SC3+D, Dose Response: With dose response, Evaluation Type: Evaluation B (Post-1980)) was “active; positive”.
